Results from patent publication US12036218B2, “Modulators of airway basal cells for the treatment or prevention of lung diseases” (Fraunhofer Gesellschaft zur Förderung der angewandten …, priority 2020, dated 2024).

Legend:
[1] = tested on: IPF-ABC with IPF lung fibroblasts; test: MTT cell proliferation assay in IPF-ABC / IPF lung fibroblast co-culture; assay type: cell-based, human; conditions: in the presence of IPF lung fibroblasts, 21 days; saracatinib 600-8 nM, pirfenidone 1 mM, nintedanib 1 μM
Description: (§1) FIG. 5: SRC-inhibitor saracatinib abrogates bronchosphere formation. (A-E) Bronchosphere assays of human IPF-ABCs were performed w/wo IPF lung fibroblasts for 21 days. Cell cultures (n=12, in triplicates) were treated with either vehicle, saracatinib (600, 210, 75, 25, 8 nM), pirfenidone (1 mM) or nintedanib (1 μM). […] (G, H) In the same model we used GFP^+ fibroblasts to study fibroblast proliferation. […] For statistical comparison repeated measures ANOVA with Tukey correction for multiple testing was used.
(§2) ABCs, either derived from IPF patients or HV, were cultured in matrigel (Corning) in a transwell system with or without lung fibroblasts either derived from patients with IPF or normal lung for 21 days (if not otherwise indicated) in the incubator (5% CO2, 37° C.). Medium exchange (BEGM (Lonza, Basel, Switzerland, #CC-3170)/DMEM (Dulbecco's Modified Eagle Medium (Gibco, Swit Fisher Scientific/Germany); ratio 1:1) was done every 7 days. In some experiments lentiviral transduced GFP expressing fibroblasts were used. Conditioned medium of the 3D organoid culture (day 7 and day 14) was used for ELISA and fibroblast stimulation experiments. Sircol assay (Scientific-Biocolor/UK, #S1000) was performed as recommended by the manufacturer on matrigel and conditioned medium harvested after 6 weeks of cell culture. Bronchosphere formation was documented by Axio Vert.A1/Zeiss/Germany and Axio Observer Z1/Zeiss/Germany. For histology, immunohistology and confocal laser microscopy 3D cell cultures were cryopreserved using Tissue-Tek and cryomolds (Hartenstein/Germany; #CMM). Detailed information is given in the supplement.

[2] = tested on: IPF-ABC with lung fibroblasts; test: 3D co-culture model of IPF-ABC with lung fibroblasts: bronchosphere formation; assay type: cell-based, human
Description: as §1
(§3) Based on the Connectivity MAP predictions, the inventors tested whether saracatinib, a known SRC inhibitor previously tested in human cancer is able to modulate IPF-ABC phenotype. […] The results were similar in cells obtained from 12 different individuals with IPF (P<0.0001, FIG. 5B). […] Similar data were obtained by testing cell proliferation in the MTT assay (P<0.0001, FIG. 5C).
as §2

[3] = tested on: IPF-ABC; test: Human 3D bronchosphere assay, IPF-ABC single culture: bronchosphere formation; assay type: cell-based; conditions: IPF-ABC cultured in 3D, 21 days
Description: as §1, §3, §2

[4] = tested on: IPF-ABC; test: MTT cell proliferation assay in IPF-ABC 3D culture; assay type: cell-based, human; conditions: IPF-ABCs without fibroblasts, 21 days; saracatinib 600-8 nM, pirfenidone 1 mM, nintedanib 1 μM
Description: as §1, §3, §2

[5] = tested on: NRG mice; test: Humanized pulmonary fibrosis model: bleomycin plus intratracheal human IPF-ABCs in NRG mice; assay type: in vivo
Description: FIG. 6: SRC-inhibitor saracatinib attenuates fibrosis in the humanized mouse model. NRG mice were intratracheally injected with a low dose of bleomycin and 3 days later with human ABCs derived from IPF patients. Mice (n=11 each group, 4 replicates (all data shown)) were treated oropharyngeally with or without saracatinib in a dose of 10 mg/kg once daily starting at day 4 (A-C) or at day 8 (D-F). […] All P values were determined by a paired comparison (t-test) testing the effect of saracatinib treatment for each human IPF cell line.
To test the effect of saracatinib on IPF-ABC induced fibrosis and remodeling in-vivo, the inventors returned to the minimal injury xenotransplant model in NRG mice. Overall, the inventors used IPF-ABCs from 38 different individuals with IPF in these experiments. Per IPF subject, IPF-ABCs were used in two animals, one treated with saracatinib and one with vehicle control, to account for interindividual variability. To test the effect of saracatinib on engraftment and development of fibrosis we started treatment at day 4 post injury, one day post IPF-ABC installation for a total of 18 days (FIG. 6A). […] To test the effect of saracatinib on established fibrosis the inventors performed another set of experiments in which treatment was delayed to day 8 when cell engraftment and fibrosis were already established.
Different mice strains were used for the experiments as indicated. B6;129Sv-Rag2tm1Fwa/ZTM (75) (Rag2−/−) and NOD.Cg-Rag1tm1Mom Il2rgtm1Wjl/SzJZtm (76) (NRG) were obtained from the central animal facility (Hannover Medical School, Hannover). NOD.Cg-Prkdcscid Il2rgtm1Wjl Tg(CAGGS-VENUS)1/Ztm (Venus-NSG) mice were kindly provided by Dr. Wiebke Garrels (Hannover Medical School). Mice received bleomycin dissolved in sterile saline at the dose of 1.2 mg/kg intratracheally on day 0. IPF-ABCs, HV-ABCs (Rag 2−/−: 0.3×105, NRG and NSG: 0.2×105) were injected intratracheally on day 3. In some experiments human IPF-ABCs transduced with a lentiviral vector encoding for GFP and luciferase were injected. Pairs of mice received the same IPF-ABC line and were later treated either with vehicle or saractinib (kindly provided by Leslie Cousens AstraZeneca) in a dose of 10 mg/kg, i.g. once daily. For histological and immunohistological analysis, the trachea was cannulated and lungs were insufflated with 4% paraformaldehyde in PBS at a pressure of 25 cm H2O, followed by removal of the heart and inflated lungs en bloc and immersion in 4% paraformaldehyde overnight at 4° C., and the tissues were processed to paraffin wax or were cryopreserved using Tissue Tek® O.C.T.™ compound. […] Collagen content was determined by quantifying hydroxyproline levels according to manufacturer's description. […]

[6] = tested on: ABCs; test: Cellular vitality of ABCs; assay type: cell-based, human; conditions: all used concentrations (600, 210, 75, 25, 8 nM)
From the text: as §3

[7] = tested on: lung fibroblasts; test: Fibroblast proliferation (GFP+ fibroblasts) in IPF-ABC co-culture; assay type: cell-based, human; conditions: GFP+ fibroblasts co-cultured with IPF-ABC
Description: as §1, §3
ABCs, either derived from IPF patients or HV, were cultured in matrigel (Corning) in a transwell system with or without lung fibroblasts either derived from patients with IPF or normal lung for 21 days (if not otherwise indicated) in the incubator (5% CO2, 37° C.). […]

[8] = pirfenidone 1 mM, nintedanib 1 μM
[9] = 10 mg/kg once daily oropharyngeal, treatment from day 4, read at day 21
[10] = 10 mg/kg once daily, treatment delayed to day 8 (day 8 to day 21), established fibrosis

Row | cellular vitality of ABCs [6] | Compound | cell proliferation as measured by the MTT assay [1] | bronchosphere formation [2, 8] | bronchosphere formation [3, 8] | cell proliferation as measured by MTI assay [4] | Ashcroft score [5, 9] | hydroxyproline/total-protein levels [5, 9] | Ashcroft score [5, 10] | hydroxyproline content [5, 10] | bronchosphere formation ([2]; saracatinib 8 nM) | bronchosphere formation ([2]; saracatinib 25 nM) | bronchosphere formation ([2]; saracatinib 600 nM, 210 nM and 75 nM) | bronchosphere formation ([3]; saracatinib 600 nM, 210 nM, and 75 nM) | fibroblast proliferation in the co-culture [7]
1 | – | Cc1ccc(=O)n(-c2ccccc2)c1 [pirfenidone] | less reduced | significantly reduced bronchosphere formation, but not completely | no visible effect | slightly | – | – | – | – | – | – | – | – | –
2 | – | COC(=O)c1ccc2c(c1)NC(=O)/C2=C(\Nc1ccc(N(C)C(=O)CN2CCN(C)CC2)cc1)c1ccccc1 [nintedanib] | less reduced | significantly reduced bronchosphere formation, but not completely | no visible effect | slightly | – | – | – | – | – | – | – | – | –
3 | did not affect | CN1CCN(CCOc2cc(OC3CCOCC3)c3c(Nc4c(Cl)ccc5c4OCO5)ncnc3c2)CC1 [saracatinib, N-(5-chloro-1,3-benzodioxol-4-yl)-7-[2-(4-methyl-1-piperazinyl)ethoxy]-5-[(tetrahydro-2H-pyran-4-yl]oxy)-4-quinazolinamine] | significantly reduced | – | – | significantly reduced | 1.4±0.7 | 0.7±0.6 | significant reductions | significant reductions | did not have an effect | lower effect | completely blocked | complete abrogation | substantially lower
